The structures appear in SMILES notation. Where only a bound is given, the exact number is not on record here.

Common to all, as to assay type: in vivo
The subject of test [1] is Blumeria graminis f. sp. tritici (Erysiphe graminis f. sp. tritici). Briefly: Blumeria graminis f. sp. tritici / wheat / leaf disc preventative (powdery mildew on wheat). Particulars: foliar, wheat leaf segments cv. Kanzler, inoculated 1 day after application, assessed 6-8 days after application, read-out: control of Blumeria graminis f. sp. tritici (percent disease control compared to untreated). The procedure: Blumeria graminis f. sp. tritici (Erysiphe graminis f. sp. tritici)/Wheat/Leaf Disc Preventative (Powdery Mildew on Wheat) Wheat leaf segments cv. Kanzler are placed on agar in a multiwell plate (24-well format) and sprayed with the formulated test compound diluted in water. The leaf disks are inoculated by shaking powdery mildew infected plants above the test plates 1 day after application. The inoculated leaf disks are incubated at 20° C. and 60% rh under a light regime of 24 h darkness followed by 12 h light/12 h darkness in a climate chamber and the activity of a compound is assessed as percent disease control compared to untreated when an appropriate level of disease damage appears on untreated check leaf segments (6-8 days after application).

Test [2] relates to Puccinia recondita f. sp. tritici. In words: Puccinia recondita f. sp. tritici / wheat / leaf disc preventative (brown rust). The following applies: foliar, wheat leaf segments cv. Kanzler, inoculated 1 day after application, assessed 7-9 days after application, read-out: control of Puccinia recondita f. sp. tritici (percent disease control compared to untreated). The protocol: Puccinia recondita f. Sp. Tritici/Wheat/Leaf Disc Preventative (Brown Rust) Wheat leaf segments cv. Kanzler are placed on agar in multiwell plates (24-well format) and sprayed with the formulated test compound diluted in water. The leaf disks are inoculated with a spore suspension of the fungus 1 day after application. The inoculated leaf segments are incubated at 19° C. and 75% rh under a light regime of 12 h light/12 h darkness in a climate cabinet and the activity of a compound is assessed as percent disease control compared to untreated when an appropriate level of disease damage appears in untreated check leaf segments (7-9 days after application).

Test [3] has the same test system. Briefly: Puccinia recondita f. sp. tritici / wheat / leaf disc curative (brown rust). Particulars: foliar, wheat leaf segments cv. Kanzler, compound applied 1 day after inoculation, assessed 6-8 days after application, read-out: control of Puccinia recondita f. sp. tritici (percent disease control compared to untreated). The procedure:
Puccinia recondita f. Sp. Tritici/Wheat/Leaf Disc Curative (Brown Rust) Wheat leaf segments cv. Kanzler are placed on agar in multiwell plates (24-well format). The leaf segments are inoculated with a spore suspension of the fungus. Plates are stored in darkness at 19° C. and 75% rh. The formulated test compound diluted in water is applied 1 day after inoculation. The leaf segments are incubated at 19° C. and 75% rh under a light regime of 12 h light/12 h darkness in a climate cabinet and the activity of a compound is assessed as percent disease control compared to untreated when an appropriate level of disease damage appears in untreated check leaf segments (6-8 days after application).

As for `CCN(C)/C=N/c1cc(OC)c(C(O)(COCC2(CC)COC2)C(F)(F)F)cc1C` (stereo not drawn) [E.034, N-ethyl-N′-[4-[1-[(3-ethyloxetan-3-yl)methoxymethyl]-2,2,2-trifluoro-1-hydroxy-ethyl]-5-methoxy-2-methyl-phenyl]-N-methyl-formamidine], the pest or weed control at 200 ppm in test [1], in test [2] and in test [3] was at least 80% each time.

Turning to `CCN(C)/C=N/c1cc(OC)c(C(O)(COCC2CC2(F)F)C(F)(F)F)cc1C` (stereo not drawn) [E.031, N′-[4-[1-[(2,2-difluorocyclopropyl)methoxymethyl]-2,2,2-trifluoro-1-hydroxy-ethyl]-5-methoxy-2-methyl-phenyl]-N-ethyl-N-methyl-formamidine], the pest or weed control at 200 ppm in test [1], in test [2] and in test [3] was at least 80% in each case.

Take `CCC1OCC(C)(COCC(O)(c2cc(C)c(/N=C/N(C)CC)cc2OC)C(F)(F)F)CO1` (stereo not drawn) [E.017, N-ethyl-N′-[4-[1-[(2-ethyl-5-methyl-1,3-dioxan-5-yl)methoxymethyl]-2,2,2-trifluoro-1-hydroxy-ethyl]-5-methoxy-2-methyl-phenyl]-N-methyl-formamidine]: the pest or weed control at 200 ppm in test [1], in test [2] and in test [3] was at least 80% in each case.

For the compound `CCN(C)/C=N/c1cc(OC)c(C(O)(COCC2(c3ccc(Cl)cc3)CC2)C(F)(F)F)cc1C` (stereo not drawn) [E.007, N′-[4-[1-[[1-(4-chlorophenyl)cyclopropyl]methoxymethyl]-2,2,2-triﬂuoro-1-hydroxy-ethyl]-5-methoxy-2-methyl-phenyl]-N-ethyl-N-methyl-formamidine], the pest or weed control at 200 ppm in test [1], in test [2] and in test [3] was at least 80% each time.

Consider `CCN(C)/C=N/c1cc(OC)c(C(O)(COCc2ccco2)C(F)(F)F)cc1C` (stereo not drawn) [E.023, N-ethyl-N′-[5-methoxy-2-methyl-4-[2,2,2-trifluoro-1-(2-furylmethoxymethyl)-1-hydroxy-ethyl]phenyl]-N-methyl-formamidine], for which the pest or weed control at 200 ppm in test [1], in test [2] and in test [3] was at least 80% each time.

In the case of `CCN(C)/C=N/c1cc(OC)c(C(O)(COCCc2ccc(OC)c(OC)c2)C(F)(F)F)cc1C` (stereo not drawn) [E.022, N′-[4-[1-[2-(3,4-dimethoxyphenyl)ethoxymethyl]-2,2,2-trifluoro-1-hydroxy-ethyl]-5-methoxy-2-methyl-phenyl]-N-ethyl-N-methyl-formamidine], the pest or weed control at 200 ppm in test [1] and in test [3] was at least 80% each time.

For the compound `CCN(C)/C=N/c1cc(OC)c(C(O)(CSC(C)C)C(F)(F)F)cc1C` (stereo not drawn) [E.071, N-ethyl-N′-[5-methoxy-2-methyl-4-[2,2,2-trifluoro-1-hydroxy-1-(isopropylsulfanylmethyl)ethyl]phenyl]-N-methyl-formamidine], the pest or weed control at 200 ppm in test [1] and in test [2] was at least 80% throughout.

In the case of `CCN(C)/C=N/c1cc(OC)c(C(O)(CSC)C(F)(F)F)cc1C` (stereo not drawn) [E.070, N-ethyl-N′-[5-methoxy-2-methyl-4-[2,2,2-trifluoro-1-hydroxy-1-(methylsulfanylmethyl)ethyl]phenyl]-N-methyl-formamidine], the pest or weed control at 200 ppm in test [1] and in test [2] was at least 80% in each case.

As to `CCN(C)/C=N/c1cc(OC)c(C(O)(CS(=O)(=O)CC)C(F)(F)F)cc1C` (stereo not drawn) [E.067, N-ethyl-N′-[4-[1-(ethylsulfonylmethyl)-2,2,2-trifluoro-1-hydroxy-ethyl]-5-methoxy-2-methyl-phenyl]-N-methyl-formamidine], the pest or weed control at 200 ppm in test [1], in test [2] and in test [3] was at least 80% each time.

`CCN(C)/C=N/c1cc(OC)c(C(O)(COCC2(C)COC2)C(F)(F)F)cc1C` (stereo not drawn) [E.018, N-ethyl-N′-[5-methoxy-2-methyl-4-[2,2,2-trifluoro-1-hydroxy-1-[(3-methyloxetan-3-yl)methoxymethyl]ethyl]phenyl]-N-methyl-formamidine]: the pest or weed control at 200 ppm in test [1], in test [2] and in test [3] was at least 80% each time.

On to `CCCSCC(O)(c1cc(C)c(/N=C/N(C)CC)cc1OC)C(F)(F)F` (stereo not drawn) [E.062, N-ethyl-N′-[5-methoxy-2-methyl-4-[2,2,2-trifluoro-1-hydroxy-1-(propylsulfanylmethyl)ethyl]phenyl]-N-methyl-formamidine], for which the pest or weed control at 200 ppm in test [1] and in test [3] was at least 80% in each case.

Turning to `CCN(C)/C=N/c1cc(OC)c(C(O)(COCc2ccc3ccccc3c2)C(F)(F)F)cc1C` (stereo not drawn) [E.009, N-ethyl-N′-[5-methoxy-2-methyl-4-[2,2,2-trifluoro-1-hydroxy-1-(2-naphthylmethoxymethyl)ethyl]phenyl]-N-methyl-formamidine], the pest or weed control at 200 ppm in test [1], in test [2] and in test [3] was at least 80% throughout.

Consider `CCN(C)/C=N/c1cc(OC)c(C(O)(COCc2cccc(C)c2)C(F)(F)F)cc1C` (stereo not drawn) [E.035, N-ethyl-N′-[5-methoxy-2-methyl-4-[2,2,2-trifluoro-1-hydroxy-1-(m-tolylmethoxymethyl)ethyl]phenyl]-N-methyl-formamidine], for which the pest or weed control at 200 ppm in test [1], in test [2] and in test [3] was at least 80% each time.

For `CCN(C)/C=N/c1cc(OC)c(C(O)(COCCc2ccc(F)cc2)C(F)(F)F)cc1C` (stereo not drawn) [E.026, N-ethyl-N′-[5-methoxy-2-methyl-4-[2,2,2-trifluoro-1-[2-(4-fluorophenyl)ethoxymethyl]-1-hydroxy-ethyl]phenyl]-N-methyl-formamidine], the pest or weed control at 200 ppm in test [1], in test [2] and in test [3] was at least 80% each time.

In the case of `CCN(C)/C=N/c1cc(OC)c(C(O)(COC2Cc3ccccc3C2)C(F)(F)F)cc1C` (stereo not drawn) [E.010, N-ethyl-N′-[5-methoxy-2-methyl-4-[2,2,2-trifluoro-1-hydroxy-1-(indan-2-yloxymethyl)ethyl]phenyl]-N-methyl-formamidine], the pest or weed control at 200 ppm in test [1], in test [2] and in test [3] was at least 80% each time.

Take `C=CCOCCOCC(O)(c1cc(C)c(/N=C/N(C)CC)cc1OC)C(F)(F)F` (stereo not drawn) [E.030, N′-[4-[1-(2-allyloxyethoxymethyl)-2,2,2-trifluoro-1-hydroxy-ethyl]-5-methoxy-2-methyl-phenyl]-N-ethyl-N-methyl-formamidine]: the pest or weed control at 200 ppm in test [1], in test [2] and in test [3] was at least 80% throughout.

In the case of `CCN(C)/C=N/c1cc(OC)c(C(O)(C2CCS(=O)(=O)CC2)C(F)(F)F)cc1C` (stereo not drawn) [E.076, N′-[4-[1-(1,1-dioxothian-4-yl)-2,2,2-trifluoro-1-hydroxy-ethyl]-5-methoxy-2-methyl-phenyl]-N-ethyl-N-methyl-formamidine], the pest or weed control at 200 ppm in test [3] is at least 80%.

Source of the values: US10925283B2, “Microbiocidal phenylamidine derivatives” (SYNGENTA PARTICIPATIONS AG, priority 2016, dated 2021).
